The record followed here is PMC3062964, “Biomolecular Interaction Study of Cyclolinopeptide A with Human Serum Albumin” (Journal of Biomedicine and Biotechnology, 2011).

Assay [1] concerns the target T1, Human Serum Albumin (HSA, fatty acid free) (Homo sapiens, UniProt P02768).
T1 construct: purchased Sigma (Oakville, ON)
Description: SPR binding of CLP-A to immobilized HSA. To be noted: for Kd: Kd = 1/Ka, SPR; for Kd / Ka: 1X PBS pH 7.4, 5% DMSO; for Ka: SPR (BiacoreX, CM5 chip, HSA 9–11 kRU), CLP-A 50–200 μM injected in triplicate, dose-response fitted with rectangular hyperbola, global Rmax 2000, standard error of curve-fitting in brackets. The protocol:
Running buffer for all experiments was prepared by diluting a 10X phosphate-buffered saline (PBS) stock solution (100 mM phosphate buffer, 20.7 mM KCl, 1370 mM NaCl, pH 6.7) to a 1X PBS, pH 7.4 solution containing 5% DMSO. Running buffers were filtered and degassed daily before use.
Analyte solutions containing the CLP-A peptides were prepared by diluting the stock solution (10 mM in DMSO) into 1.05X PBS, giving a final 1X PBS, pH 7.4 buffer containing 5% DMSO (same as the running buffer).
All SPR measurements were performed at different temperatures using a BiacoreX instrument equipped with a research-grade CM5 carboxylated-dextran sensor chip (Biacore). The fluidic unit of the instrument was cleaned prior to experiments using the DESORB method (injections of 0.5% sodium dodecyl sulphate, followed by 50 mM glycine, pH 9.5) equipped in the instrument's software. On some occasions a “SUPER-CLEAN” method was also used (injections of 1% CH3COOH, 1 M NaHCO3, 10 mM HCl, and 6 M GndHCl).
The carboxylated-dextran sensor chips were preconditioned prior to HSA immobilization by priming the instrument 3 times with HBS-EP buffer, followed by 3 successive 1 min injections of 50 mM NaOH at 50 μL min^−1. HSA was covalently immobilized onto a CM5 sensor surface at 25°C using standard amine-coupling chemistry. Flow cell 1 (Fc1) and flow cell 2 (Fc2) were activated by a 7 min injection of a 1 : 1 mixture of 0.1 M NHS and 0.4 M EDC using a flow rate of 5 μL min^−1. Immediately after activation, HSA (30 μg mL^−1, 10 mM acetate buffer pH 5.3) was immobilized onto Fc2. A 7 min injection of 1 M EA (pH 8.5) was conducted over Fc1 and Fc2 to deactivate the surfaces. The final HSA concentration immobilized onto the chip was 9–11 kRU.
CLP-A solutions (50–200 μM) were injected in triplicate and flowed over reference and HSA surfaces for 2 min at a flow rate of […], followed by a dissociation phase of 3 min for all experimental temperatures. At the end of the CLP-A injection, the flowing solution was switched to the running buffer until the response returned to the original baseline. Instances where the baseline was not readily achieved, a short pulse of 50% (v/v) DMSO solution was injected at high flow rate to remove any remaining CLP-A. Data were collected at a rate of 5 Hz and processed using the BiaEvaluation V4.2 software. The equilibrium constant, Ka, was determined using the rectangular hyperbola equation [20]:
(1) Req=Rmax Ka[CLP-A]/1+Ka[CLP-A], where Req, Rmax, [CLP-A] are the measured response values, the binding site saturation value, and the concentration of CLP-A, respectively. Curve-fitting was done with Microcal Origin V7.1 using a global Rmax value of 2000.
CLP-A concentration was limited to below 200 μM due to the solubility of the peptide in the buffer. The affinity of interaction was estimated by first assuming that HSA-binding sites were equally available and second that only high affinity sites were occupied in the working concentration range [24]. The Kd and Ka values indicate that affinity increases as the temperature increased. […] To further elucidate the HSA/CLP-A interaction, thermodynamic parameters are extracted using the van't Hoff equation (2) ln Kd=ΔH/R(1/T)−ΔS/R, where R = 8.314 J mol^−1 K^−1. This yields ΔH and ΔS for the interaction to be 204 kJ mol^−1 and 746 J mol^−1 K^−1 respectively. The binding is overall endothermic. This indicates an association with the hydrophobic pockets of HSA and the opening of binding sites. Moreover, DMSO has been used to assist the solubility. Therefore, the entire solvation complex consisting of CLP-A, DMSO and H2O requires energy to expose the binding site. This energy plus the binding energy for interaction in the hydrophobic pockets of HSA result in an overall endothermic process. The large entropy of the endothermic process clearly indicate that binding is entropy-driven. This is due to contribution from breaking of the solvation complex and hydrophobic binding.
Background: SPR reads the build-up and loss of mass on a sensor chip optically.

The target of assay [2] is T2, HSA (Homo sapiens, UniProt P02768).
T2 construct: purchased Sigma (Oakville, ON)
T2 sequence (P02768 25-609): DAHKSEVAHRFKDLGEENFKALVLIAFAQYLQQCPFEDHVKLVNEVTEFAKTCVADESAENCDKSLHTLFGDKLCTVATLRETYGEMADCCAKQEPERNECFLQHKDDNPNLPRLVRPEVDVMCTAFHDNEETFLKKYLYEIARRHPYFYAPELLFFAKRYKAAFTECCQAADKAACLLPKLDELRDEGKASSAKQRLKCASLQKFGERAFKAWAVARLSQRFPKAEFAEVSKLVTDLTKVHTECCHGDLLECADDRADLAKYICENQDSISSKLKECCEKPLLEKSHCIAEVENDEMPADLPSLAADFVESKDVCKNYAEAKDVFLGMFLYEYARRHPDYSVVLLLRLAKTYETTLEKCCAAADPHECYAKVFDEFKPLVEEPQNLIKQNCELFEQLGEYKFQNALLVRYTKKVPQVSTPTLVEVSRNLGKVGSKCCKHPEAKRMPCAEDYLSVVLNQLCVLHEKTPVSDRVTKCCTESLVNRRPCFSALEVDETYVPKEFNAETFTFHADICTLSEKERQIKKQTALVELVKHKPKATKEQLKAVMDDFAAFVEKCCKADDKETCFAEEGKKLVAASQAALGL
Put plainly: Far-UV circular dichroism, secondary structure of HSA upon CLP-A binding. To be noted: HSA 18 μM + CLP-A 50 μM, 10 mM PBS, 5% DMSO, pH 7.4, room temperature, far-UV CD, CDNN V2.1, 210–260 nm. The protocol: CD measurements of HSA (18 μM), HSA/CLP-A (18 μM, 50 μM) in 10 mM PBS, 5% DMSO, pH = 7.4 buffer were made with a Pistar-180 CD spectrometer (Applied Photophysics Ltd., Leatherhead, UK) at room temperature. The far-UV region was scanned from 260–180 nm in 0.5 nm steps at a scan rate of 10 nm min^−1 and a bandwidth of 6 nm using a 0.010 cm optical pathlength quartz cuvette. The secondary structure was estimated using the neural network deconvolution software CDNN V2.1 [22]. The near-UV region was scanned from 350–250 nm in 0.5 nm steps at a scan rate of 10 nm min^−1, and a bandwidth of 2 nm using a 10 mm optical pathlength cuvette.
In order to assess if any conformational changes were present upon CLP-A complexation with HSA, we compared the far-UV and near-UV CD spectra of HSA and HSA/CLP-A in the running buffer used in the Biacore experiments shown in Figure 5. CD spectra taken in the far-UV spectral region provide insight to the secondary structure of a protein. […] This region of the spectra corresponds to signals from the phenylalanine, tyrosine, and tryptophan residues on the protein and it provides insight to changes in the tertiary structure of the protein.
(In general: Circular dichroism is widely used to follow secondary structure.)

Peptide text beside a SMILES is read from it.

T1 sequence (P02768 25-609): as above

As usually defined, the Kd is the equilibrium constant for the complex coming apart. A higher Kd goes with weaker binding. `CC[C@H](C)[C@@H]1NC(=O)[C@H](CC(C)C)NC(=O)[C@H](Cc2ccccc2)NC(=O)[C@H](Cc2ccccc2)NC(=O)[C@@H]2CCCN2C(=O)[C@@H]2CCCN2C(=O)[C@H](C(C)C)NC(=O)[C@H](CC(C)C)NC(=O)[C@H]([C@@H](C)CC)NC1=O` [CLP-A, Cyclolinopeptide A] (cyclo(FFLIILVPP)): the dissociation constant (Kd) was found to be 1320 µM in assay [1] (20°C), 593 µM in assay [1] (25°C), 142 µM in assay [1] (30°C) and 20 µM in assay [1] (37°C). Moreover, the Ka in assay [1] (20°C) is listed as 757 (33) M^−1; in assay [1] (25°C), 1687 (20) M^−1; in assay [1] (30°C) it was 7056 (36) M^−1; in assay [1] (37°C) it was 50032 (1792) M^−1. Further, the “recognition kinetics of binding to the HSA-binding site” value in assay [1] (SPR sensorgrams, 50–200 μM, 20–37°C, gradual increase of response to steady state during injection) is reported as “very slow recognition kinetics”. Also, the “Secondary structure of HSA/CLP-A: Parallel” value in assay [2] (HSA alone 6) is 6%. The “Secondary structure of HSA/CLP-A: Antiparallel” value in assay [2] (HSA alone 8) worked out at 9%. The “Secondary structure of HSA/CLP-A: Beta-Turn” value in assay [2] (HSA alone 15) stood at 16%. In addition, the “Secondary structure of HSA/CLP-A: Rndm. Coil” value in assay [2] (HSA alone 27) came out at 29%. The “Secondary structure of HSA/CLP-A: Helix” value in assay [2] (HSA alone 46) was 41%.
